Assays:
barnyardgrass [1] = experiment: Test C flooded paddy test; assay type: in vivo, Echinochloa crus-galli; conditions: Flood
Text: (§1) At time of treatment, test pots were flooded to 3 cm above the soil surface, treated by application of test compounds directly to the paddy water, and then maintained at that water depth for the duration of the test. Treated plants and controls were maintained in a greenhouse for 13 to 15 days, after which time all species were compared to controls and visually evaluated. […] A dash (-) response means no test result.

barnyardgrass [2] = experiment: Test A pre-/postemergence greenhouse test; assay type: in vivo, Echinochloa crus-galli; conditions: for Barnyardgrass plant response rating: 0 to 100 scale; for Plant response rating, Barnyardgrass: 0 to 100 scale where 0 is no effect and 100 is complete control
Summary of the method: (§2)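 Each test compound, dissolved in a non-phytotoxic solvent mixture with surfactant, was sprayed directly onto seeded soil (loam/sand blend) and, at the same moment, onto seedlings carrying one to two leaves. Around ten greenhouse days later, plants were rated visually for injury relative to untreated controls.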

rice = experiment: Test C flooded paddy test; assay type: in vivo, Oryza sativa; conditions: Flood
Text: as §1

giant foxtail = experiment: Test A pre-/postemergence greenhouse test; assay type: in vivo, Setaria faberi; conditions: for Foxtail, Giant plant response rating: 0 to 100 scale; for Plant response rating, Foxtail, Giant: 0 to 100 scale where 0 is no effect and 100 is complete control
Summary of the method: as §2

corn = experiment: Test A pre-/postemergence greenhouse test; assay type: in vivo, Zea mays; conditions: for Corn plant response rating: 0 to 100 scale; for Plant response rating, Corn: 0 to 100 scale where 0 is no effect and 100 is complete control
Summary of the method: as §2

umbrella sedge = experiment: Test C flooded paddy test; assay type: in vivo, Cyperus difformis; conditions: Flood
Text: as §1

duck salad = experiment: Test C flooded paddy test; assay type: in vivo, Heteranthera limosa; conditions: Flood
Text: as §1

redroot pigweed = experiment: Test A pre-/postemergence greenhouse test; assay type: in vivo, Amaranthus retroflexus; conditions: for Pigweed plant response rating: 0 to 100 scale; for Plant response rating, Pigweed: 0 to 100 scale where 0 is no effect and 100 is complete control
Summary of the method: as §2

morningglory = experiment: Test A pre-/postemergence greenhouse test; assay type: in vivo, Ipomoea spp.; conditions: for Morningglory plant response rating: 0 to 100 scale; for Plant response rating, Morningglory: 0 to 100 scale where 0 is no effect and 100 is complete control
Summary of the method: as §2

crabgrass = experiment: Test A pre-/postemergence greenhouse test; assay type: in vivo, Digitaria sanguinalis; conditions: for Crabgrass, Large plant response rating: 0 to 100 scale; for Plant response rating, Crabgrass, Large: 0 to 100 scale where 0 is no effect and 100 is complete control
Summary of the method: as §2

velvetleaf = experiment: Test A pre-/postemergence greenhouse test; assay type: in vivo, Abutilon theophrasti; conditions: for Velvetleaf plant response rating: 0 to 100 scale; for Plant response rating, Velvetleaf: 0 to 100 scale where 0 is no effect and 100 is complete control
Summary of the method: as §2

wheat = experiment: Test A pre-/postemergence greenhouse test; assay type: in vivo, Triticum aestivum; conditions: for Wheat plant response rating: 0 to 100 scale; for Plant response rating, Wheat: 0 to 100 scale where 0 is no effect and 100 is complete control
Summary of the method: as §2

[3] = 31 g ai/ha, scale 0 to 100 (0 no effect, 100 complete control)
[4] = 62 g ai/ha, scale 0 to 100, 0 no effect, 100 complete control, 13 to 15 days
[5] = 125 g ai/ha, scale 0 to 100, 0 no effect, 100 complete control, 13 to 15 days
[6] = 250 g ai/ha, scale 0 to 100 (0 no effect, 100 complete control)
[7] = Postemergence, 125 g ai/ha, 0 is no effect, 100 is complete control
[8] = Postemergence, 500 g ai/ha, 0 is no effect, 100 is complete control
[9] = Preemergence, 125 g ai/ha, 0 no effect, 100 complete control
[10] = 250 g ai/ha, scale 0 to 100, 0 no effect, 100 complete control, 13 to 15 days

## Cn1nc(C(F)(F)F)c(CS(=O)(=O)c2ccc(Br)c[n+]2[O-])c1OC(F)F [Compound 13]
Barnyardgrass [1]; [3]
  Plant response rating, Barnyardgrass: 0
Barnyardgrass [1]; [4]
  Plant response rating, Barnyardgrass: 0
Barnyardgrass [1]; [5]
  Plant response rating, Barnyardgrass: 20
Barnyardgrass [1]; [6]
  Plant response rating, Barnyardgrass: 80
Barnyardgrass [2]; [7]
  Barnyardgrass plant response rating: 0
Barnyardgrass [2]; [8]
  Barnyardgrass plant response rating: 0
Barnyardgrass [2]; [9]
  Barnyardgrass plant response rating: 50
Barnyardgrass [2]; Preemergence, 500 g ai/ha
  Plant response rating, Barnyardgrass: 90
rice; [3]
  Plant response rating, Rice: 0
rice; [4]
  Plant response rating, Rice: 50
rice; [5]
  Plant response rating, Rice: 65
rice; [6]
  Plant response rating, Rice: 85
Giant foxtail; [7]
  Foxtail, Giant plant response rating: 0
Giant foxtail; [8]
  Foxtail, Giant plant response rating: 10
Giant foxtail; [9]
  Foxtail, Giant plant response rating: 50
Giant foxtail; Preemergence, 500 g ai/ha
  Plant response rating, Foxtail, Giant: 70
corn; [7]
  Corn plant response rating: 0
corn; [8]
  Corn plant response rating: 0
corn; [9]
  Corn plant response rating: 0
corn; Preemergence, 500 g ai/ha
  Plant response rating, Corn: 0
Umbrella sedge; [3]
  Plant response rating, Sedge, Umbrella: 0
Umbrella sedge; [4]
  Plant response rating, Sedge, Umbrella: 0
Umbrella sedge; [5]
  Plant response rating, Sedge, Umbrella: 20
Umbrella sedge; [6]
  Plant response rating, Sedge, Umbrella: 100
Duck salad; [3]
  Plant response rating, Ducksalad: 0
Duck salad; [4]
  Plant response rating, Ducksalad: 0
Duck salad; [5]
  Plant response rating, Ducksalad: 0
Duck salad; [6]
  Plant response rating, Ducksalad: 95
Redroot pigweed; [7]
  Pigweed plant response rating: 0
Redroot pigweed; [8]
  Pigweed plant response rating: 0
morningglory; [7]
  Morningglory plant response rating: 0
morningglory; [8]
  Morningglory plant response rating: 0
morningglory; [9]
  Morningglory plant response rating: 0
morningglory; Preemergence, 500 g ai/ha
  Plant response rating, Morningglory: 0
crabgrass; [7]
  Crabgrass, Large plant response rating: 0
crabgrass; [8]
  Crabgrass, Large plant response rating: 30
crabgrass; [9]
  Crabgrass, Large plant response rating: 40
crabgrass; Preemergence, 500 g ai/ha
  Plant response rating, Crabgrass, Large: 80
velvetleaf; [7]
  Velvetleaf plant response rating: 0
velvetleaf; [8]
  Velvetleaf plant response rating: 0
velvetleaf; [9]
  Velvetleaf plant response rating: 0
velvetleaf; Preemergence, 500 g ai/ha
  Plant response rating, Velvetleaf: 0
wheat; [7]
  Wheat plant response rating: 0
wheat; [8]
  Wheat plant response rating: 0
wheat; [9]
  Wheat plant response rating: 0
wheat; Preemergence, 500 g ai/ha
  Plant response rating, Wheat: 0

## Cn1nc(C(F)(F)F)c(CS(=O)(=O)c2cc(Br)cc[n+]2[O-])c1Cl [Compound 32]
Barnyardgrass [1]; [3]
  Plant response rating, Barnyardgrass: 0
Barnyardgrass [1]; [4]
  Plant response rating, Barnyardgrass: 0
Barnyardgrass [1]; [5]
  Plant response rating, Barnyardgrass: 0
Barnyardgrass [1]; [10]
  Plant response rating, Barnyardgrass: 0
Barnyardgrass [2]; [7]
  Barnyardgrass plant response rating: 0
Barnyardgrass [2]; [8]
  Barnyardgrass plant response rating: 30
Barnyardgrass [2]; [9]
  Barnyardgrass plant response rating: 0
Barnyardgrass [2]; Preemergence, 500 g ai/ha
  Plant response rating, Barnyardgrass: 60
rice; [3]
  Plant response rating, Rice: 0
rice; [4]
  Plant response rating, Rice: 0
rice; [5]
  Plant response rating, Rice: 0
rice; [10]
  Plant response rating, Rice: 0
Giant foxtail; [7]
  Foxtail, Giant plant response rating: 0
Giant foxtail; [8]
  Foxtail, Giant plant response rating: 0
Giant foxtail; [9]
  Foxtail, Giant plant response rating: 0
Giant foxtail; Preemergence, 500 g ai/ha
  Plant response rating, Foxtail, Giant: 70
corn; [7]
  Corn plant response rating: 0
corn; [8]
  Corn plant response rating: 0
corn; [9]
  Corn plant response rating: 0
corn; Preemergence, 500 g ai/ha
  Plant response rating, Corn: 20
Umbrella sedge; [3]
  Plant response rating, Sedge, Umbrella: 0
Umbrella sedge; [4]
  Plant response rating, Sedge, Umbrella: 0
Umbrella sedge; [5]
  Plant response rating, Sedge, Umbrella: 0
Umbrella sedge; [10]
  Plant response rating, Sedge, Umbrella: 50
Duck salad; [3]
  Plant response rating, Ducksalad: 0
Duck salad; [4]
  Plant response rating, Ducksalad: 0
Duck salad; [5]
  Plant response rating, Ducksalad: 0
Duck salad; [10]
  Plant response rating, Ducksalad: 50
Redroot pigweed; [7]
  Pigweed plant response rating: 0
Redroot pigweed; [8]
  Pigweed plant response rating: 0
Redroot pigweed; [9]
  Pigweed plant response rating: 0
Redroot pigweed; Preemergence, 500 g ai/ha
  Plant response rating, Pigweed: 100
morningglory; [7]
  Morningglory plant response rating: 0
morningglory; [8]
  Morningglory plant response rating: 10
morningglory; [9]
  Morningglory plant response rating: 0
morningglory; Preemergence, 500 g ai/ha
  Plant response rating, Morningglory: 0
crabgrass; [7]
  Crabgrass, Large plant response rating: 0
crabgrass; [8]
  Crabgrass, Large plant response rating: 0
crabgrass; [9]
  Crabgrass, Large plant response rating: 0
crabgrass; Preemergence, 500 g ai/ha
  Plant response rating, Crabgrass, Large: 0
velvetleaf; [7]
  Velvetleaf plant response rating: 0
velvetleaf; [8]
  Velvetleaf plant response rating: 0
velvetleaf; [9]
  Velvetleaf plant response rating: 0
velvetleaf; Preemergence, 500 g ai/ha
  Plant response rating, Velvetleaf: 0
wheat; [7]
  Wheat plant response rating: 0
wheat; [8]
  Wheat plant response rating: 0
wheat; [9]
  Wheat plant response rating: 0
wheat; Preemergence, 500 g ai/ha
  Plant response rating, Wheat: 30

## Cn1nc(C(F)(F)F)c(CS(=O)(=O)c2cc(Cl)cc[n+]2[O-])c1Cl [Compound 38]
Barnyardgrass [1]; [3]
  Plant response rating, Barnyardgrass: 0
Barnyardgrass [1]; [4]
  Plant response rating, Barnyardgrass: 0
Barnyardgrass [1]; [5]
  Plant response rating, Barnyardgrass: 0
Barnyardgrass [1]; [10]
  Plant response rating, Barnyardgrass: 0
Barnyardgrass [2]; [7]
  Barnyardgrass plant response rating: 0
Barnyardgrass [2]; [8]
  Barnyardgrass plant response rating: 0
Barnyardgrass [2]; [9]
  Barnyardgrass plant response rating: 30
Barnyardgrass [2]; Preemergence, 500 g ai/ha
  Plant response rating, Barnyardgrass: 60
rice; [3]
  Plant response rating, Rice: 0
rice; [4]
  Plant response rating, Rice: 0
rice; [5]
  Plant response rating, Rice: 0
rice; [10]
  Plant response rating, Rice: 0
Giant foxtail; [7]
  Foxtail, Giant plant response rating: 0
Giant foxtail; [8]
  Foxtail, Giant plant response rating: 0
Giant foxtail; [9]
  Foxtail, Giant plant response rating: 0
Giant foxtail; Preemergence, 500 g ai/ha
  Plant response rating, Foxtail, Giant: 30
corn; [7]
  Corn plant response rating: 0
corn; [8]
  Corn plant response rating: 0
corn; [9]
  Corn plant response rating: 0
corn; Preemergence, 500 g ai/ha
  Plant response rating, Corn: 0
Umbrella sedge; [3]
  Plant response rating, Sedge, Umbrella: 0
Umbrella sedge; [4]
  Plant response rating, Sedge, Umbrella: 0
Umbrella sedge; [5]
  Plant response rating, Sedge, Umbrella: 0
Umbrella sedge; [10]
  Plant response rating, Sedge, Umbrella: 0
Duck salad; [3]
  Plant response rating, Ducksalad: 0
Duck salad; [4]
  Plant response rating, Ducksalad: 0
Duck salad; [5]
  Plant response rating, Ducksalad: 0
Duck salad; [10]
  Plant response rating, Ducksalad: 0
Redroot pigweed; [7]
  Pigweed plant response rating: 0
Redroot pigweed; [8]
  Pigweed plant response rating: 0
Redroot pigweed; [9]
  Pigweed plant response rating: 0
Redroot pigweed; Preemergence, 500 g ai/ha
  Plant response rating, Pigweed: 0
morningglory; [7]
  Morningglory plant response rating: 0
morningglory; [8]
  Morningglory plant response rating: 0
morningglory; [9]
  Morningglory plant response rating: 0
morningglory; Preemergence, 500 g ai/ha
  Plant response rating, Morningglory: 0
crabgrass; [7]
  Crabgrass, Large plant response rating: 0
crabgrass; [8]
  Crabgrass, Large plant response rating: 0
crabgrass; [9]
  Crabgrass, Large plant response rating: 0
crabgrass; Preemergence, 500 g ai/ha
  Plant response rating, Crabgrass, Large: 0
velvetleaf; [7]
  Velvetleaf plant response rating: 0
velvetleaf; [8]
  Velvetleaf plant response rating: 0
velvetleaf; [9]
  Velvetleaf plant response rating: 0
velvetleaf; Preemergence, 500 g ai/ha
  Plant response rating, Velvetleaf: 0
wheat; [7]
  Wheat plant response rating: 0
wheat; [8]
  Wheat plant response rating: 0
wheat; [9]
  Wheat plant response rating: 0
wheat; Preemergence, 500 g ai/ha
  Plant response rating, Wheat: 0

From patent US20100298141A1, “SUBSTITUTED PYRIDINE N-OXIDE HERBICIDES” (E. I. DU PONT DE NEMOURS AND COMPANY, priority 2007, published 2010)
